Measured values: PubChem BioAssay AID248 (DTP/NCI, 2004)
“And” between values parts separate entries of the source, which are not always exact repeats. Equal entries are not always repeated. Inconclusive results and toxic doses are left out. Cut-off read from the data, not from the text of the source: active = T/C of 150% or more; inactive = T/C below 125%.

System: L1210 leukemia ip in BDF1 mice, survival T/C
Test: NCI In Vivo Anticancer Drug Screen. Data for tumor model L1210 Leukemia (intraperitoneal) in B6D2F1 (BDF1) mice
Settings: endpoint: mean survival time, higher = longer survival
Procedure, shortened: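 Transplanted-tumor mice were given test agent; controls received vehicle only. Survival readings from the two groups were divided (treated over control).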

[1] = dose: 100.0 mg/kg/injection, schedule: Q04DX003 (ip), vehicle: saline with Tween-80
[2] = dose: 200.0 mg/kg/injection, schedule: Q04DX003 (ip), vehicle: saline with Tween-80
[3] = dose: 400.0 mg/kg/injection, schedule: Q04DX003 (ip), vehicle: saline with Tween-80
[4] = dose: 100.0 mg/kg/injection, schedule: Q01DX001 (ip), vehicle: Klucel (hydroxypropylcellulose) (HPC)
[5] = dose: 200.0 mg/kg/injection, schedule: Q01DX001 (ip), vehicle: Klucel (hydroxypropylcellulose) (HPC)
[6] = dose: 400.0 mg/kg/injection, schedule: Q01DX001 (ip), vehicle: Klucel (hydroxypropylcellulose) (HPC)
[7] = dose: 100.0 mg/kg/injection, schedule: Q04DX002 (ip), vehicle: Klucel (hydroxypropylcellulose) (HPC)
[8] = dose: 200.0 mg/kg/injection, schedule: Q04DX002 (ip), vehicle: Klucel (hydroxypropylcellulose) (HPC)
[9] = dose: 400.0 mg/kg/injection, schedule: Q04DX002 (ip), vehicle: Klucel (hydroxypropylcellulose) (HPC)
[10] = dose: 100.0 mg/kg/injection, schedule: Q04DX003 (ip), vehicle: saline
[11] = dose: 200.0 mg/kg/injection, schedule: Q04DX003 (ip), vehicle: saline
[12] = dose: 100.0 mg/kg/injection, schedule: Q01DX009 (ip), vehicle: saline with Tween-80
[13] = dose: 200.0 mg/kg/injection, schedule: Q01DX009 (ip), vehicle: saline with Tween-80
[14] = dose: 100.0 mg/kg/injection, schedule: Q01DX001 (ip), vehicle: saline
[15] = dose: 200.0 mg/kg/injection, schedule: Q01DX001 (ip), vehicle: saline
[16] = dose: 400.0 mg/kg/injection, schedule: Q01DX001 (ip), vehicle: saline
[17] = dose: 100.0 mg/kg/injection, schedule: Q04DX002 (ip), vehicle: saline with Tween-80
[18] = dose: 200.0 mg/kg/injection, schedule: Q04DX002 (ip), vehicle: saline with Tween-80
[19] = dose: 400.0 mg/kg/injection, schedule: Q04DX002 (ip), vehicle: saline with Tween-80

Measured: T/C

Nc1ccc(SCC(=O)O)cc1
inactive: dose: 75.0 mg/kg/injection, schedule: Q01DX001 (ip), vehicle: saline 94 % of control | dose: 150.0 mg/kg/injection, schedule: Q01DX001 (ip), vehicle: saline 100 % of control | dose: 300.0 mg/kg/injection, schedule: Q01DX001 (ip), vehicle: saline 92 % of control

COc1ccc(OC)c(C(=O)CCCC(=O)O)c1
inactive: dose: 100.0 mg/kg/injection, schedule: Q01DX009 (ip), vehicle: acetone 91 % of control | [1] 96 % of control | dose: 200.0 mg/kg/injection, schedule: Q01DX009 (ip), vehicle: acetone 86 % of control | [2] 89 % of control | dose: 400.0 mg/kg/injection, schedule: Q01DX009 (ip), vehicle: acetone 90 % of control | [3] 91 % of control

CCC(O)C[As](=O)(O)c1ccccc1 (stereo not drawn)
inactive: dose: 1.56 mg/kg/injection, schedule: Q04DX003 (ip), vehicle: saline 94 % of control | dose: 3.13 mg/kg/injection, schedule: Q04DX003 (ip), vehicle: saline 105 % of control | dose: 6.25 mg/kg/injection, schedule: Q04DX003 (ip), vehicle: saline 96 % of control

CC(C)C(C)/C=C/C(C)C1CCC2C3CC=C4CC(O)CCC4(C)C3CCC12C (stereo not drawn)
inactive: [4] 97 % of control | [5] 101 % of control | [6] 90 % of control

COc1ccc(C(=O)c2ccccc2)cc1
inactive: [7] 115 % of control | [8] 86 % of control | [9] 86 % of control

NN(C(=O)c1ccccc1)c1ccccc1
inactive: dose: 75.0 mg/kg/injection, schedule: Q01DX001 (ip), vehicle: carboxymethylcellulose (CMC) 93 % of control | dose: 150.0 mg/kg/injection, schedule: Q01DX001 (ip), vehicle: carboxymethylcellulose (CMC) 98 % of control | dose: 300.0 mg/kg/injection, schedule: Q01DX001 (ip), vehicle: carboxymethylcellulose (CMC) 95 % of control

CCOC(=O)c1[nH]c(-c2ccccc2)c(C(=O)OCC)c1-c1ccccc1
inactive: dose: 100.0 mg/kg/injection, schedule: Q04DX003 (ip), vehicle: Klucel (hydroxypropylcellulose) (HPC) 100 % of control | dose: 200.0 mg/kg/injection, schedule: Q04DX003 (ip), vehicle: Klucel (hydroxypropylcellulose) (HPC) 103 % of control | dose: 400.0 mg/kg/injection, schedule: Q04DX003 (ip), vehicle: Klucel (hydroxypropylcellulose) (HPC) 115 % of control

O=C(O)CCCCCC(=O)c1ccccc1
inactive: [7] 100 % of control | [8] 118 % of control | [9] 107 % of control

C=CCC(CC)(C(=O)OCC)C(=O)OCC
inactive: dose: 100.0 mg/kg/injection, schedule: Q01DX009 (ip), vehicle: saline 107 % of control | [10] 102 % of control | dose: 200.0 mg/kg/injection, schedule: Q01DX009 (ip), vehicle: saline 98 % of control | [11] 113 % of control | dose: 400.0 mg/kg/injection, schedule: Q01DX009 (ip), vehicle: saline 95 % of control | dose: 400.0 mg/kg/injection, schedule: Q04DX003 (ip), vehicle: saline 96 % of control

COc1ccc(CC(=O)Cc2ccc(OC)c(OC)c2)cc1OC
inactive: [12] 93 % of control | [1] 100 % of control | [13] 98 % of control | [2] 108 % of control | dose: 400.0 mg/kg/injection, schedule: Q01DX009 (ip), vehicle: saline with Tween-80 102 % of control | [3] 100 % of control

Cn1cnc2c([N+](C)(C)C)ncnc21
inactive: dose: 11.0 mg/kg/injection, schedule: Q04DX003 (ip), vehicle: saline 100 % of control | dose: 22.0 mg/kg/injection, schedule: Q04DX003 (ip), vehicle: saline 104 % of control | dose: 44.0 mg/kg/injection, schedule: Q04DX003 (ip), vehicle: saline 98 % of control | dose: 90.0 mg/kg/injection, schedule: Q04DX003 (ip), vehicle: saline 100 % of control | [10] 95 % of control and 101 % of control | [11] 104 % of control

N#Cc1ccc(CCc2ccc(Cl)cc2)cc1
inactive: dose: 50.0 mg/kg/injection, schedule: Q01DX001 (ip), vehicle: saline 94 % of control | [14] 95 % of control | [15] 101 % of control | [16] 92 % of control

Cc1ccc(NC(=O)c2c(Br)c(Br)c(Br)c(Br)c2C(=O)O)cc1Cl
inactive: dose: 100.0 mg/kg/injection, schedule: Q01DX009 (ip), vehicle: Klucel (hydroxypropylcellulose) (HPC) 100 % of control | [7] 96 % of control | dose: 200.0 mg/kg/injection, schedule: Q01DX009 (ip), vehicle: Klucel (hydroxypropylcellulose) (HPC) 96 % of control | [8] 110 % of control | [9] 102 % of control

CCCCCCC#CC(=O)OCCCC
inactive: [17] 93 % of control | [18] 93 % of control | [19] 90 % of control

BrC(Br)(Br)c1ccc2ccccc2n1
inactive: dose: 50.0 mg/kg/injection, schedule: Q01DX001 (ip), vehicle: other 109 % of control | dose: 100.0 mg/kg/injection, schedule: Q01DX001 (ip), vehicle: other 103 % of control | [1] 93 % of control | dose: 200.0 mg/kg/injection, schedule: Q01DX001 (ip), vehicle: other 101 % of control | [2] 93 % of control | dose: 400.0 mg/kg/injection, schedule: Q01DX001 (ip), vehicle: other 97 % of control | [3] 95 % of control

CCOC(=O)C(Nc1cccc2ccccc12)C(=O)OCC
inactive: [7] 105 % of control | [8] 103 % of control | [9] 100 % of control

CC(=O)NC1CCC(=O)C=C1c1ccccc1 (stereo not drawn)
inactive: [14] 96 % of control | [15] 107 % of control | [16] 94 % of control

CCC/C(=N\NC(=O)c1ccccc1OC)c1ccccc1
inactive: dose: 50.0 mg/kg/injection, schedule: Q01DX009 (ip), vehicle: saline with Tween-80 105 % of control | [12] 97 % of control | [13] 105 % of control

CCCCNC(=O)NS(=O)(=O)c1ccc(C)cc1
inactive: [4] 96 % of control | [5] 96 % of control | [6] 89 % of control

CCOC(=O)CC(CC(=O)OCC)NC(=O)c1ccc(N(C)Cc2ccccc2)cc1
inactive: dose: 100.0 mg/kg/injection, schedule: Q01DX001 (ip), vehicle: carboxymethylcellulose (CMC) 107 % of control | dose: 200.0 mg/kg/injection, schedule: Q01DX001 (ip), vehicle: carboxymethylcellulose (CMC) 108 % of control | dose: 400.0 mg/kg/injection, schedule: Q01DX001 (ip), vehicle: carboxymethylcellulose (CMC) 105 % of control

Cc1c(-c2ccccc2)oc2c(C(=O)OCCN3CCCCC3)cccc2c1=O
inactive: [14] 102 % of control | [15] 102 % of control | [16] 96 % of control

Cc1cc(Cl)ccc1O/C(=C/C(=O)O)C(=O)O
inactive: [17] 107 % of control | [18] 107 % of control | [19] 100 % of control

CC(C)=CC[Se]c1ncnc2c1ncn2C1OC(CO)C(O)C1O (stereo not drawn)
inactive: dose: 12.5 mg/kg/injection, schedule: Q01DX005 (ip), vehicle: saline 91 % of control | dose: 25.0 mg/kg/injection, schedule: Q01DX005 (ip), vehicle: saline 91 % of control | dose: 50.0 mg/kg/injection, schedule: Q01DX005 (ip), vehicle: saline 87 % of control
